Here are results for three compounds from patent US8318708B2, “Use of vitamin D receptor agonists, ligands, and precursors to treat pancreatic fibrosis” (Salk Institute for Biological Studies, priority 2007, dated 2012).

Data set [1] has as its system primary HSCs. The data set can be described thus: Illumina array: LPS-treated primary rat HSCs with vitamin D3 or LXR ligand T1317 (Table 3). To be noted: co-treatment with LPS; T1317 1 μM, vitamin D3 1 nM.
Protocol: (§2) For Illumina microarray analysis, Illumina TotalPrep RNA Amplification Kit (Ambion; Catalog # IL1791) was used with the manufacturer's instructions for the RNA amplification. […] Essentially, biotinylated cRNA was prepared according to the manufacturer's directions starting with 200 ng total RNA. Hybridization to the Illumina Sentrix RatRef-12 v.1 and Mouse RefSeq version 2 Expression BeadChips (Illumina, Inc., San Diego, Calif.), washing and scanning were performed according to the Illumina BeadStation 500× manual (revision C). […] RNA is isolated using Trizol and the quality/integrity of the total RNA verified using a Bioanalyzer (Agilent).
(§3) Microarray experiments were repeated two times with RNA from two experiments where HSCs were isolated from two different rats and for each condition triplicate samples were used. The “Detection Score” was used to determine expression using the Illumina platform. It is a statistical measure in the BeadStudio software (version 1.5.0.34), which is computed based on the Z-value of a gene relative to the Z-value of the negative controls. The Illumina data were adjusted (“normalized”) using a cubic spline function. […] The expression difference score, DiffScore, takes into account background noise and sample variability. […] Illumina expression arrays utilize gene-specific 50-mer oligonucleotide probes with an average of 30 replicates of each probe bead per individual array.
Isolated primary HSCs were cultured on plastic tissue culture plates for 40 hours prior to treatment with or without vitamin D3 (1 nM) in the presence or absence of 15 ng/ml of LPS for 24 hours. Cells were then harvested, total RNA extracted, and biotin labeled cRNA was prepared for hybridization to Illumina Rat RefSeq version 1 expression arrays. […] The data generated from these arrays was processed using Illumina BeadStudio software to identify gene expression changes between the different samples.
For data set [2] the following is noted: cited from earlier work.
For data set [3], the target named is T1, VDR (Homo sapiens, UniProt P11473).
T1 construct: endogenous in cells; host or cells: human LX-2 hepatic stellate cell line
T1 sequence (P11473 1-427): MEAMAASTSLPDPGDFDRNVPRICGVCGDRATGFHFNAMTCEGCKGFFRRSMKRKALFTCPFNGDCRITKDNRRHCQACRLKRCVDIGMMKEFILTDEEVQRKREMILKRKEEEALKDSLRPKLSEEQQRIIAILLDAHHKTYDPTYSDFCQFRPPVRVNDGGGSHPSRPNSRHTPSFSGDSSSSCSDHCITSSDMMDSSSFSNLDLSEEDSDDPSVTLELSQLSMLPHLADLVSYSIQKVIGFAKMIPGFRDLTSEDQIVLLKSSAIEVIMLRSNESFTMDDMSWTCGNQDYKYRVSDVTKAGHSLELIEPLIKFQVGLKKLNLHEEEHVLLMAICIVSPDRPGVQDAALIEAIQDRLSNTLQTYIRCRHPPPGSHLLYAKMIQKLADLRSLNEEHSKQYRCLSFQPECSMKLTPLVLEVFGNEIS
In words: Real-time qPCR of CYP24A1 in human LX-2 cell line. Type of data set: cell-based. On the procedure: Human LX-2 cells were grown to 50% confluence in DMEM with 10% FBS in 6-Well plates.
(§1) For qRT-PCR, 500 ng of deoxyribonuclease-treated total RNA was reverse transcribed into cDNA using SuperScript™ III reverse transcriptase essentially as described by the manufacturer (Invitrogen). Quantification of gene of interest mRNA was performed using a Rotor-Gene, RG 6000 (Corbett Research). […] Human B2M primers were from Applied Biosystems.
TGFβ signaling is the key mediator in hepatic fibrogenesis, triggering the transition of HSCs into myofibroblast-like cells and thereby stimulating synthesis of ECM proteins. Thus, TGFβ1 is produced locally in the organ as part of the fibrotic process It has been previously reported that TGFB signaling can influence the activity of VDR-dependent genes, as depicted in (FIG. 8A). In this model, TGFβ activation results in SMAD3 phosphorylation, inducing its translocation into the nucleus where it associates with the ligand bound VDR complex. Phosphorylated SMAD3 acts as a co-activator in the VDR/vitaminD3 complex enhancing the transcriptional potential of VDR on target genes. To understand the interplay between TGFB and VDR signaling pathways, the effects of TGFβ on the well characterized VDR gene target Cyp24α1 were examined.

Data set [4] has as its system CCl4-induced liver fibrosis. In words: CCl4-induced liver fibrosis model. Type of data set: in vivo, mouse. The source says: . The CCl4 model of chronic liver injury and fibrosis is a well established model of liver injury, inflammation, fibrosis and cirrhosis where CCL4 is metabolized in the liver by CYP2E to a trichloromethyl free radical, which reacts with oxygen to produces a highly reactive peroxytrichloromethyl radical that initiates a damaging cycle of lipid membrane peroxidation and cell death (Leclercq et al., 2001. J. Gastroenterology and Hepatol., 24:51-59). With iterative injury (3 months in mice), extensive scarring develops as indicated by transdifferentiation of HSCs into myofibroblasts, intense myofibroblast proliferation and progressive laying down of ECM components. Following cessation of CCl4 injections, the scarring resolves completely (Kanzler et al., 1999. Am J Physiol., 276(4 Pt 1):G1059-68). These distinct phases of injury, repair, and resolution make this an ideal model for studying both injury and repair mechanisms.
Eight week-old C57BL6 mice were injected with 2 ml/kg body weight of CCl4 i.p. (1:1 v/v in corn oil) or vehicle alone twice weekly for 4 to 12 weeks. Specifically, groups of mice (n=8 per group per time point) are sacrificed at 48 hours (acute injury), 4, 8 and 12 weeks. The animals were terminated after a period of 72 hours after the final CCl4 injection and whole liver, intestine and serum were collected for histological, cytological, biochemical and molecular analyses. […]. Control mice received vehicle alone.
Twice weekly administration of CCl4 for […] caused sustained hepatocyte damage as evidenced by significant increases in serum ALT levels and marked histological changes in liver sections stained with hematoxylin and eosin. Serum ALT, AST and triglyceride (TG) and hepatic lipid peroxides (by TBARs) and TG were measured biochemically. Liver histology was scored blindly by a histopathologist using the Brunt system to determine levels of steatosis and inflammation. Expression levels of key genes involved in BA (Sult2a1) and cholesterol metabolism, transport (Bsep, Ntcp, Mdr1&2, Mrp2&3, Oatp1, 2&4), and synthesis (Srebp2, Cyp7a1) and the NXRs (Lxr, Car, Pxr & Fxr) regulating these genes were determined by real-time quantitative PCR (QPCR) with results normalized to […] (B2M). Protein expression was examined in a select number of genes by Western blotting. Statistical analysis was completed on SPSS v14 using Kruschal Wallis H and Mann-Whitney U tests with p<0.05 considered significant

The target of data set [5] is T2, VDR (Rattus norvegicus, UniProt P13053).
T2 sequence (P13053 1-423): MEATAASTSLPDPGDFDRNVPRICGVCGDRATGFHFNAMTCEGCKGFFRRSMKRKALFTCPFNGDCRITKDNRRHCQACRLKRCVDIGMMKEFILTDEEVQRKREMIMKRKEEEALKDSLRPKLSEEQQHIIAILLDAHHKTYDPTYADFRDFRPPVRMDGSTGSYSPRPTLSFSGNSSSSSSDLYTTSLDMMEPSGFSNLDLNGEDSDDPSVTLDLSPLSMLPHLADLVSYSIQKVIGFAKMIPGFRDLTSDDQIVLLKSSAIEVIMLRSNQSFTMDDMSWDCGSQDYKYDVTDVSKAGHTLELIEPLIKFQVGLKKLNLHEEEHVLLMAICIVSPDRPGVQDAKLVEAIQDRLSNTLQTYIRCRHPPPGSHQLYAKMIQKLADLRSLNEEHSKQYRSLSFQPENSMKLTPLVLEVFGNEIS
In words: Real-time qPCR of VDR target and vitamin D metabolising genes in primary rat HSCs. Type of data set: cell-based. Also noted: endogenous in cells; host or cells: primary rat hepatic stellate cells (Sprague-Dawley rats). On the procedure:
Activated HSCs were cultured on plastic rather than Matrigel in the same media described above. Kupffer cells (KCs) were cultured in Williams' medium E containing 10% FBS, 2 mM glutamine on plastic plates.
as §1

For data set [6], the target named is T2, VDR. To be noted: rat Kupffer cells, FIG. 11B.
A further data set has as its system MCD diet model of NASH. In words: Methionine and choline deficient (MCD) diet model of NASH. Type of data set: in vivo, mouse. As to conditions: mice on MCD diet, 1 IU (25 ng) per gram body weight twice weekly. From the text:
The methionine and choline deficient (MCD) diet model of nonalcoholic steatohepatitis (NASH) was originally developed in the mid 1990's to provide a suitable animal model to study the pathogenesis of this common human disease (Weltman et al., 1996. Gastroenterology., 111(6):1645-53). It faithfully reproduces the hepatic steatosis, lobular inflammation and fibrosis progressing over time to more severe fibrosis as observed in the human condition. The mouse version of this model has previously been well characterized and reproducibly mice develop hepatic steatosis, inflammation and extensive perivenular and pericellular fibrosis by 10 weeks.
Male C57black wild-type and the VDR floxed knockout mice are fed ad libitum a high fat, MCD diet (ICN cat no: 960439) for up to 10 weeks. Controls are pair-fed the same diet supplemented with choline chloride (2 g/kg) and DL-methionine (3 g/kg). […]. […] Fibrosis is determined by Sirius Red staining of liver samples. Serum transaminases, lipids and bile acids and liver bile acids are quantified as previously published (Stedman et al., 2006. Proc Natl Acad Sci USA., 103(30):11323-8) and hepatic lipids, glutathione and lipid peroxidation also are analyzed using standard published protocols. Additional tissue portions are snap frozen in liquid nitrogen for later preparation of total RNA for gene expression studies by quantitative PCR and gene arrays.

Data set [7] concerns the target T2, VDR. To be noted: rat SECs, FIG. 11A.
Data set [8] deals with primary HSCs. The data set can be described thus: Illumina array: TGFβ1-treated primary rat HSCs with vitamin D3 (Table 4). As to conditions: co-treatment with TGFβ1 100 pM, vitamin D3 1 nM, 24 h.
Protocol: as §2, §3
The Illumina platform described above was used to identify genome-wide effects of vitamin D3-activated VDR on TGFβ signaling in primary rat HSCs. Isolated primary HSCs were cultured on plastic tissue culture plates for 40 hours prior to treatment with or without vitamin D3 (1 nM) in the presence or absence of TGFβ1 (100 pM) for 24 hours. Cells were then harvested, total RNA extracted, and biotin labeled cRNA was prepared for hybridization to an Illumina Rat RefSeq version 1 genome array. […] The data generated from these arrays was processed using Illumina BeadStudio software to identify gene expression changes between the different samples. The vitamin D3 mediated changes on TGFβ1 signaling were identified by comparing TGFβ1 and co-treated TGFβ1/vitamin D3 samples.

Entries after “also recorded” stand apart in the source; their conditions may differ. Like-named read-outs stand apart in the source and are kept apart here. Where only a bound is given, the exact number is not on record here.

For `O=S(=O)(c1ccccc1)N(CC(F)(F)F)c1ccc(C(O)(C(F)(F)F)C(F)(F)F)cc1` [T1317], in the data set with primary HSCs [1], the “Expression of neutrophil and monocyte attractants” value is given as “relatively few changes”; the “Gene induction of the interleukins IL-10 and 6” value was “markedly decreased”.
`C=C1CC[C@H](O)C/C1=C/C=C1\CCC[C@]2(C)[C@@H]([C@H](C)CCCC(C)(C)O)CC[C@@H]12` [calcidiol, (5Z,7E)-9,10-Secocholesta-5,7,10(19)-triene-3β,25-diol monohydrate]: in data set [2] (isolated reports), the “Levels associated with changes in calcium homeostasis” value is “exceeding 500 nmol/l”. In addition, the “Serum calcidiol with no evidence of adverse effects” value in [2] (requiring a supply of 250 μg (10,000 IU)) is given as under 140 nmol/L. The “Concentration giving maximal enhancement of CYP24A1” value at VDR [3] (LX-2 cells, day 2) was found to be 100 nM. Besides, the CYP24A1 expression entry on VDR [3] (culture activated (day 7) LX-2 cells) was “barely induced”; at VDR [5] (100 nM (10-fold higher dose), culture activated HSCs, listed as 25(OH) vitamin D3, monohydrate) it was “moderately increasing; also recorded: barely induced”. Also, the “Decrease of IL-α expression” value in [4] (liver, CCl4 mice) is given as “about 50%”. Further, the “Decrease of MCP-1 expression” value in data set [4] (liver, CCl4 mice) is recorded as “about 50%”. Moreover, in data set [4] (liver, CCl4 mice), the “Decrease of TGFβ1 expression” value is on record as “about 50%”. Besides, in data set [4] (liver, CCl4 mice), the TNF-α induction entry is given as “no induction”. Further, the “Production of inflammatory and fibrogenic markers” value is given as “significantly reduced” in [4] (mice, CCl4, 1 IU (25 ng) per gram body weight twice weekly, FIG. 9) and “reduced” with MCD diet model of NASH. The “Concentration giving maximal induction of CYP24A1” value on VDR [5] (day 2 HSCs) was found to be 10 nM. The “VDR activation (Cyp24a1 mRNA expression)” value at VDR [6] and at VDR [7] was “also activated” each time.
Take `C=C1CC[C@H](O)C/C1=C/C=C1\CCC[C@]2(C)[C@@H]([C@H](C)CCCC(C)C)CC[C@@H]12` [vitamin D3, reference compound]: in the data set with primary HSCs [8], the “Induction of all collagen genes by TGFβ” value is reported as “markedly decreased” and the “Repression of MMP10 by TGFβ” value is on record as “inhibited”. Further, in the data set on primary HSCs [1], the “Expression of neutrophil and monocyte attractants” value is given as “preferentially repressed”; the “Gene induction of the interleukins IL-10 and 6” value was “did not alter”.
